# Results taken from US20080063628A1, “METHODS TO PROMOTE CELL DIFFERENTIATION” (priority 2006, published 2008).
# Experiments:
# Panc-1 cells = assay: Trichostatin A 48 h treatment, gene expression by Real-Time PCR (Example 1); assay type: cell-based, human; conditions: for GAPDH gene expression / HNF-3 beta gene expression / Insulin gene expression / PDX-1 gene expression / Sox17 gene expression / glucagon gene expression: 48 hours
# Protocol: Neonatal fibroblasts, also designated Hs27, were derived from human foreskins and obtained from the American Type Culture Collection (ATCC). Panc-1 cells are a transformed cell line derived from a pancreatic epitheloid carcinoma of ductal origin, also obtained from ATCC.
# Fibroblasts or Panc-1 cells were seeded into a 6-well tissue culture plate at a density of 50,000 cells/cm^2. Both cell types were cultured in medium containing 10% FBS and DMEM under standard cell culture conditions (37° C., 5% CO2). After reaching confluence (2-3 days), trichostatin A diluted in dimethyl sulfoxide (DMSO) and medium was added at either 2.5 μM or 5 μM to the cultures. Parallel cultures were treated with an equivalent concentration of DMSO as a vehicle control.
# RNA samples were obtained from the treated cultures 48 hours after the addition of trichostatin A or DMSO. The culture medium was removed, the cells were washed with phosphate buffered saline (PBS), and RLT Lysis buffer containing β-mercaptoethanol (Qiagen) was added. The samples were homogenized using Qiashredder columns (Qiagen), and RNA was purified using the RNeasy Mini Kit (Qiagen). RNA quantity and quality was determined using a spectrophotometer, and cDNA was made using the iScript cDNA synthesis kit (BioRad).
# The expression levels of Sox17, HNF-3 beta, Pdx-1, insulin, and glucagon were determined by Real-Time PCR (RT-PCR), as described in Example 15. Samples of 20 ng cDNA were used in each reaction. RT-PCR reactions were performed on the Applied Biosystems 7500, and data was analyzed using the accompanying software. Human pancreas cDNA was included as a positive control. Results were normalized against GAPDH expression levels.
# (§1) Real-time PCR amplifcation and quantitative analysis. Unless otherwise stated, all reagents were purchased from Applied Biosystems. Real-time PCR reactions were performed using the ABI PRISM™ 7500 Sequence Detection System. TAQMAN™ FAST UNIVERSAL PCR MASTER MIX™ (ABI, CA) was used with 20 ng of reverse transcribed RNA in a total reaction volume of 20 μl. Each cDNA sample was run in duplicate to allow correction of pipetting errors. Primers and FAM-labeled TAQMAN™ probes were used at concentrations of 200 nM. The level of expression for each target gene was normalized using the pre-developed Applied Biosystem's human glyceraldehyde-3-phosphate dehydrogenase (GAPDH) endogenous control kit. Primers and probes were designed using either ABI PRISM PRIMER EXPRESS™ software or a pre-developed ABI gene analysis kit. For each gene, either one of the primers or the probe were designed to be exon-boundary spanning. This eliminated the possibility of the primers/probe binding to any genomic DNA present. The primer and probe sets are listed as follows: Pdx-1 (Hs00426216), Insulin (Hs00355773), glucagon (Hs00174967), and FoxA2 (HNF 3-beta) (Hs00232764). The remaining primers were designed using the PRIMERS program (ABI, CA). After an initial 95° C. incubation for 20 sec, samples were cycled 40 times in two stages: a denaturation step at 95° C. for 3 sec, followed by an annealing/extension step at 60° C. for 30 sec.
# (§2) For each primer/probe set, a cycle time value was determined as the cycle number at which the fluorescence intensity of the PCR reaction reached a specific value in the middle of the exponential region of amplification. An increase in expression of a gene corresponded to a decrease in the number of cycles required for the fluorescence intensity to reach this value.
# [1] = system: amniotic fluid-derived cells; assay: Chronic trichostatin A treatment, gene expression by RT-PCR (Example 4); assay type: cell-based, human
# Protocol: Amniotic fluid derived cells were obtained according to the methods described in Example 14. Cells were seeded into a 24-well tissue culture plate at a density of 5000/cm^2 and cultured in AMNIOMAX (Invitrogen) under standard cell culture conditions until confluent. After the cells reached confluency, sample wells were treated with either 500 nM or 1.0 μM trichostatin A diluted in DMSO and medium; control wells were treated with an equivalent concentration of DMSO. At 24 hour intervals over the three day incubation period, cultures underwent a complete medium change, and a fresh dilution of trichostatin A or DMSO was added as appropriate.
# RNA samples were obtained from the treated cultures at 24 hour intervals after the initial addition of trichostatin A or DMSO. The culture medium was removed, cells were washed with PBS, and RLT lysis buffer with P-mercaptoethanol (Qiagen) was added. RNA was purified using the RNeasy Mini Kit (Qiagen); RNA quantity and quality was determined using a spectrophotometer. cDNA was made using the iScript cDNA synthesis kit (BioRad).
# Expression levels of Sox17, HNF-3 beta, Pdx-1, insulin, and glucagon were determined by RT-PCR. Samples of 20 ng cDNA were used in each reaction, performed on an Applied Biosystems 7500 according to the methods described in Example 15. Data were analyzed using the accompanying software. Human pancreas cDNA was included as a control. Results were normalized against GAPDH expression levels. Basal expression of insulin and Sox-17 genes was detectable in untreated amniotic fluid-derived cells. However, expression of glucagon and Pdx-1 genes was not detectable in untreated cells by RT-PCR up to cycle 40. HNF-3 beta was not detected in untreated cells at 24-hours in culture but was weakly expressed at 48 and 72 hours culture time.
# as §1, §2
# [2] = Panc-1 cells treated for 48 hours
smiles,measurement,setting,value
CC(/C=C/C(=O)NO)=C\[C@@H](C)C(=O)c1ccc(N(C)C)cc1 [trichostatin A],GAPDH gene expression,Panc-1 cells; 2.5 μM,+++ (detectable at less than 35 cycles by RT-PCR with SE less than 0.9)
same,HNF-3 beta gene expression,Panc-1 cells; 2.5 μM,+++ (detectable at less than 35 cycles by RT-PCR with SE less than 0.9)
same,Insulin gene expression,Panc-1 cells; 2.5 μM,+ (detectable at greater than 35–40 cycles by RT-PCR)
same,PDX-1 gene expression,Panc-1 cells; 2.5 μM,+++ (detectable at less than 35 cycles by RT-PCR with SE less than 0.9)
same,Sox17 gene expression,Panc-1 cells; 2.5 μM,+++ (detectable at less than 35 cycles by RT-PCR with SE less than 0.9)
same,glucagon gene expression,Panc-1 cells; 2.5 μM,+++ (detectable at less than 35 cycles by RT-PCR with SE less than 0.9)
same,GAPDH gene expression,Panc-1 cells; 5.0 μM,+++ (detectable at less than 35 cycles by RT-PCR with SE less than 0.9)
same,HNF-3 beta gene expression,Panc-1 cells; 5.0 μM,+++ (detectable at less than 35 cycles by RT-PCR with SE less than 0.9)
same,Insulin gene expression,Panc-1 cells; 5.0 μM,+ (detectable at greater than 35–40 cycles by RT-PCR)
same,PDX-1 gene expression,Panc-1 cells; 5.0 μM,+++ (detectable at less than 35 cycles by RT-PCR with SE less than 0.9)
same,Sox17 gene expression,Panc-1 cells; 5.0 μM,+++ (detectable at less than 35 cycles by RT-PCR with SE less than 0.9)
same,glucagon gene expression,Panc-1 cells; 5.0 μM,+++ (detectable at less than 35 cycles by RT-PCR with SE less than 0.9)
same,Pdx-1 expression with 5.0 μm versus 2.5 μM trichostatin A,Panc-1 cells; [2],11 times higher
same,Sox-17 expression with 5.0 μm versus 2.5 μM trichostatin A,Panc-1 cells; [2],60 times higher
same,glucagon expression with 5.0 μm versus 2.5 μM trichostatin A,Panc-1 cells; [2],5 times higher
same,HNF-3 beta gene expression,"[1]; 500 nM renewed daily, 24 hours",+++ (detectable at less than 35 cycles by RT-PCR with std error less than 0.9)
same,Insulin gene expression,"[1]; 500 nM renewed daily, 24 hours",nd (not detectable at >40 cycles by RT-PCR)
same,PDX-1 gene expression,"[1]; 500 nM renewed daily, 24 hours",+++ (detectable at less than 35 cycles by RT-PCR with std error less than 0.9)
same,Sox17 gene expression,"[1]; 500 nM renewed daily, 24 hours",+++ (detectable at less than 35 cycles by RT-PCR with std error less than 0.9)
same,glucagon gene expression,"[1]; 500 nM renewed daily, 24 hours",+ (detectable between 35 and 40 cycles by RT-PCR)
same,HNF-3b gene expression,"[1]; 500 nM renewed daily, 48 hours",+++ (detectable at less than 35 cycles by RT-PCR with std error less than 0.9)
same,Insulin gene expression,"[1]; 500 nM renewed daily, 48 hours",nd (not detectable at >40 cycles by RT-PCR)
same,PDX-1 gene expression,"[1]; 500 nM renewed daily, 48 hours",+ (detectable between 35 and 40 cycles by RT-PCR)
same,Sox17 gene expression,"[1]; 500 nM renewed daily, 48 hours",+++ (detectable at less than 35 cycles by RT-PCR with std error less than 0.9)
same,glucagon gene expression,"[1]; 500 nM renewed daily, 48 hours",+ (detectable between 35 and 40 cycles by RT-PCR)
same,HNF-3b gene expression,"[1]; 500 nM renewed daily, 72 hours",+++ (detectable at less than 35 cycles by RT-PCR with std error less than 0.9)
same,Insulin gene expression,"[1]; 500 nM renewed daily, 72 hours",nd (not detectable at >40 cycles by RT-PCR)
same,PDX-1 gene expression,"[1]; 500 nM renewed daily, 72 hours",+++ (detectable at less than 35 cycles by RT-PCR with std error less than 0.9)
same,Sox17 gene expression,"[1]; 500 nM renewed daily, 72 hours",+++ (detectable at less than 35 cycles by RT-PCR with std error less than 0.9)
same,glucagon gene expression,"[1]; 500 nM renewed daily, 72 hours",+ (detectable between 35 and 40 cycles by RT-PCR)
same,HNF-3 beta gene expression,"[1]; 1 μM renewed daily, 24 hours",+++ (detectable at less than 35 cycles by RT-PCR with std error less than 0.9)
same,Insulin gene expression,"[1]; 1 μM renewed daily, 24 hours",nd (not detectable at >40 cycles by RT-PCR)
same,PDX-1 gene expression,"[1]; 1 μM renewed daily, 24 hours",+++ (detectable at less than 35 cycles by RT-PCR with std error less than 0.9)
same,Sox17 gene expression,"[1]; 1 μM renewed daily, 24 hours",+++ (detectable at less than 35 cycles by RT-PCR with std error less than 0.9)
same,glucagon gene expression,"[1]; 1 μM renewed daily, 24 hours",+++ (detectable at less than 35 cycles by RT-PCR with std error less than 0.9)
same,HNF-3b gene expression,"[1]; 1 μM renewed daily, 48 hours",+++ (detectable at less than 35 cycles by RT-PCR with std error less than 0.9)
same,Insulin gene expression,"[1]; 1 μM renewed daily, 48 hours",nd (not detectable at >40 cycles by RT-PCR)
same,PDX-1 gene expression,"[1]; 1 μM renewed daily, 48 hours",+++ (detectable at less than 35 cycles by RT-PCR with std error less than 0.9)
same,Sox17 gene expression,"[1]; 1 μM renewed daily, 48 hours",+++ (detectable at less than 35 cycles by RT-PCR with std error less than 0.9)
same,glucagon gene expression,"[1]; 1 μM renewed daily, 48 hours",++ (detectable at less than 35 cycles by RT-PCR with std error greater than 0.9)
same,HNF-3b gene expression,"[1]; 1 μM renewed daily, 72 hours",+++ (detectable at less than 35 cycles by RT-PCR with std error less than 0.9)
same,Insulin gene expression,"[1]; 1 μM renewed daily, 72 hours",nd (not detectable at >40 cycles by RT-PCR)
same,PDX-1 gene expression,"[1]; 1 μM renewed daily, 72 hours",+++ (detectable at less than 35 cycles by RT-PCR with std error less than 0.9)
same,Sox17 gene expression,"[1]; 1 μM renewed daily, 72 hours",+++ (detectable at less than 35 cycles by RT-PCR with std error less than 0.9)
same,glucagon gene expression,"[1]; 1 μM renewed daily, 72 hours",+++ (detectable at less than 35 cycles by RT-PCR with std error less than 0.9)
